Values joined by “and” are separate entries in the source; they are usually repeats but may differ in a detail not shown here. Equal entries are not always repeated. Where two headings read alike, the source gives them in different places.
What was measured:
[1] = test system: N. benthamiana leaf explants; assay: Killing curve for tobacco leaf explants; assay type: cell-based; settings: for explants exhibiting necrosis: 200 μg/mL, after 7 days, MS solid medium; for shoot induction observed (share of plates): after 30 days
Description: FIG. 6. Doxycycline killing curve for N. benthamiana leaf explants.

Kluyveromyces marxianus = assay: Yeast sensitivity on YPGE agar; assay type: cell-based
Method: (§1) Example 4. […] From a single overnight grown colony of each yeast strain, 25 mL of yeast extract-peptone-dextrose (YPD) broth were inoculated and grown for 16 hours at 30° C. and 150 rpm.

Pichia pastoris = assay: Yeast sensitivity on YPGE agar; assay type: cell-based; settings: 10^6 cells plated
Method: as §1

[2] = test system: Saccharomyces cerevisiae ATCC 44774; assay: Yeast sensitivity on YPGE agar; assay type: cell-based
Method: as §1

Kluyvermyces lactis = assay: Yeast sensitivity on YPGE agar; assay type: cell-based
Method: as §1

[3] = test system: Jalapeño hypocotyl, epicotyl and shoot tip tissues; assay: Sensitivity of Jalapeño explants; assay type: cell-based; settings: 200 μg/mL; initially evaluated after 15 days
[4] = test system: C. reinhardtii strain CC-849
Method: Glass bead transformation C. reinhardtii strain CC-849 was transformed with supercoiled plasmid DNA of Atetx, Btetx, pKS-aphVIII or pSP124S (Table 4) by the glass bead method. Briefly, the algae were grown at 25° C. with a 18/6 (light/dark) photoperiod in TAP media to mid-log phase (1-2×10^6 cells/mL), the cells were harvested by centrifugation 5 min. at 5000 g, the growth medium was removed and fresh TAP was added to achieve a cell concentration of 2×10^8 cells/mL. 300 μL of the cell suspension were placed in a 1.5 mL centrifuge tube containing 0.3 g of sterile 0.4-0.6 mm diameter glass beads (Sigma, St. Louis, Mo.) and 1×10^−12 mols of the desired plasmid DNA. The cell/DNA/glass bead suspensions were vortexed 15 s at maximum power in a VWR mini vortex. The cells were transferred to a glass tube with 5 mL of fresh TAP media and incubated at 25° C. overnight with a 8/6 (light/dark) photoperiod. After 14 hours the cells were concentrated by centrifugation at 5,000 g for 15 minutes and resuspended in TAP media to yield either 3×10^7 cells/mL of pKS-aphVIII and pSP124S transformants and 2.5×10^6, 5×10^6, 1×10^7 or 3×10^7 cells/mL for tetx transformants. […] When colonies appeared, they were streaked on to selective TAP agar plates.
C. reinhardtii strain CC-849 was transformed with supercoiled plasmid DNA of AtetX and BtetX, by the glass bead method. […]

[5] = 10^5 cells plated, 2 days of incubation

## C[C@H]1c2cccc(O)c2C(=O)C2=C(O)[C@]3(O)C(=O)C(C(N)=O)=C(O)[C@@H](N(C)C)[C@@H]3[C@@H](O)[C@@H]21 [doxycycline]
[1]
  explants exhibiting necrosis: 100%
Kluyveromyces marxianus; 10^6 cells plated
  concentration at which growth was inhibited: 675 µg/mL and 1000 µg/mL
Kluyveromyces marxianus; 10^7 cells plated
  concentration at which growth was inhibited: 1000 µg/mL
Pichia pastoris
  concentration at which growth was inhibited: 1000 µg/mL
[2]; 10^5 cells plated
  concentration at which growth was inhibited: 1000 µg/mL
[2]; 10^7 cells plated
  concentration at which growth was inhibited: 1000 µg/mL
Kluyvermyces lactis; 10^6 cells plated
  concentration at which growth was inhibited: 675 µg/mL and 1000 µg/mL
Kluyvermyces lactis; 10^7 cells plated
  concentration at which growth was inhibited: 1000 µg/mL
[3]
  explants exhibiting necrosis: 100%

## CN(C)[C@@H]1C(O)=C(C(N)=O)C(=O)[C@@]2(O)C(O)=C3C(=O)c4c(O)cccc4[C@@](C)(O)[C@H]3C[C@@H]12 [tetracycline, Tetracycline]
[1]; 15 μg/mL
  shoot induction observed (share of plates): 50%
[1]; 25 μg/mL
  shoot induction observed (share of plates): 50%
[1]
  explants exhibiting necrosis: 100%
[4]; tetracycline 25 μg/mL for selection of primary transformants
  decrease of number of positive colonies compared to 15 μg/mL: approximately 75%
[4]; tetracycline 50 μg/mL for selection of primary transformants
  decrease of number of positive colonies compared to 15 μg/mL: approximately 75%
Kluyveromyces marxianus; [5]
  concentration at which growth was inhibited: 350 to 1000 µg/mL
Kluyveromyces marxianus; 10^6 cells plated
  concentration at which growth was inhibited: 1000 µg/mL
[2]; 2 days of incubation, cell number not clearly stated
  concentration at which growth was inhibited: 500 µg/mL and 750 µg/mL and 1000 µg/mL
Kluyvermyces lactis; [5]
  concentration at which growth was inhibited: 750 µg/mL and 1000 µg/mL
[3]
  explants exhibiting necrosis: 100%
